Test results: patent US6589566B2, “Composition comprising theanine” (priority 1998, dated 2003)

What was measured:
mice = assay type: in vivo; settings: oral administration of 2 g/kg
Text: Theanine, formulated in the theanine-containing composition of the present invention, is a glutamic acid derivative contained in tea-leaves, which is the main component of deliciousness (umami) of tea. It is also used as a food additive for seasoning. […] As described above, the theanine is an extremely safe substance.

[1] = tested on: women complaining of premenstrual syndrome symptoms; assay: Test Example 5: premenstrual syndrome questionnaire, powdered L-theanine; assay type: in vivo, humans; settings: 20 women, 50 mg powdered L-theanine per day during corpus lutea stage
Experimental: A test for assessing the premenstrual syndrome-suppressive effect of the inventive product was performed in 20 women complaining of 5 or more premenstrual syndrome symptoms. The inventive product used herein was powdered L-theanine as prepared in Example 1. Each subject was requested to measure their basal body temperature upon awaking for 2 months. […] During the test period, physical symptoms, mental symptoms and social symptoms were recorded in detail everyday. On the first day of the third menstruation, the test was terminated and a questionnaire survey was conducted. Questionnaire Survey Concerning Premenstrual Syndrome of Test Example 5 1. Were PMS symptoms suppressed ? 1) having remarkable effects; 2) having some effects; 3) having slight effects; 4) none. 2. For those selected 1), 2) or 3) in 1., were there any improvements in the daily life ? […] 3. For those selected 1), 2) or 3) in 1., please give specifics: […]

male and female subjects = assay: Test Example 4: anxiety group after coffee extract beverage containing L-theanine; assay type: in vivo, humans; settings: 10 times per day for one month, 7 subjects
Experimental: Each of male and female subjects consisting of a total of 7 members was given a beverage prepared by dissolving the L-theanine obtained in Examples 1 and 2 at amounts of 0 mg, 60 mg, 300 mg or 1200 mg in 100 g of coffee extract in boiling water (equivalent to about 1 mg/kg, about 5 mg/kg, and about […], respectively) 10 times per day for one month.

ICR male mice = assay: Example 11: amount of spontaneous exercise, rotatable cage; assay type: in vivo; settings: oral 10 ml of 1% by weight aqueous solution per 1 kg body weight, versus non-administered group
Experimental: Ten ICR male mice were each orally administered with 10 ml of a 1% by weight theanine aqueous solution, per 1 kg of body weight, and the mice were allowed to stand in an inhalation box. The administered group of mice were compared with the 10 non-administered group of mice, wherein the amount of excercise was evaluated by counting the number of rotations of the rotatable cage for 60 minutes.

[2] = Theanine content 60 mg in 100 g coffee extract
[3] = Theanine content 300 mg in 100 g coffee extract
[4] = Theanine content 1200 mg in 100 g coffee extract

CCNC(=O)CC[C@H](N)C(=O)O [L-theanine]
dead cases in acute toxicity test (mice): no dead cases
Were PMS symptoms suppressed? 4) none [1]: 0 subjects (0%).
High-Anxiety Group (number of subjects) (male and female subjects; [2]): 2
Low-Anxiety Group (number of subjects) (male and female subjects; [2]): 2
Moderate-Anxiety Group (number of subjects) (male and female subjects; [2]): 3
High-Anxiety Group (number of subjects) (male and female subjects; [3]): 0
Low-Anxiety Group (number of subjects) (male and female subjects; [3]): 0
Moderate-Anxiety Group (number of subjects) (male and female subjects; [3]): 1
High-Anxiety Group (number of subjects) (male and female subjects; [4]): 0
Low-Anxiety Group (number of subjects) (male and female subjects; [4]): 7
Moderate-Anxiety Group (number of subjects) (male and female subjects; [4]): 0
amount of exercise (number of rotations of the rotatable cage for 60 minutes) (ICR male mice): significant decrease
